We go through one molecule from paper PMC8320619 (Current Research in Toxicology, 2020).

The target of this test is T1, multidrug resistance associated protein 4 (MRP4) (Homo sapiens, UniProt O15439).
T1 sequence (O15439 1-1325): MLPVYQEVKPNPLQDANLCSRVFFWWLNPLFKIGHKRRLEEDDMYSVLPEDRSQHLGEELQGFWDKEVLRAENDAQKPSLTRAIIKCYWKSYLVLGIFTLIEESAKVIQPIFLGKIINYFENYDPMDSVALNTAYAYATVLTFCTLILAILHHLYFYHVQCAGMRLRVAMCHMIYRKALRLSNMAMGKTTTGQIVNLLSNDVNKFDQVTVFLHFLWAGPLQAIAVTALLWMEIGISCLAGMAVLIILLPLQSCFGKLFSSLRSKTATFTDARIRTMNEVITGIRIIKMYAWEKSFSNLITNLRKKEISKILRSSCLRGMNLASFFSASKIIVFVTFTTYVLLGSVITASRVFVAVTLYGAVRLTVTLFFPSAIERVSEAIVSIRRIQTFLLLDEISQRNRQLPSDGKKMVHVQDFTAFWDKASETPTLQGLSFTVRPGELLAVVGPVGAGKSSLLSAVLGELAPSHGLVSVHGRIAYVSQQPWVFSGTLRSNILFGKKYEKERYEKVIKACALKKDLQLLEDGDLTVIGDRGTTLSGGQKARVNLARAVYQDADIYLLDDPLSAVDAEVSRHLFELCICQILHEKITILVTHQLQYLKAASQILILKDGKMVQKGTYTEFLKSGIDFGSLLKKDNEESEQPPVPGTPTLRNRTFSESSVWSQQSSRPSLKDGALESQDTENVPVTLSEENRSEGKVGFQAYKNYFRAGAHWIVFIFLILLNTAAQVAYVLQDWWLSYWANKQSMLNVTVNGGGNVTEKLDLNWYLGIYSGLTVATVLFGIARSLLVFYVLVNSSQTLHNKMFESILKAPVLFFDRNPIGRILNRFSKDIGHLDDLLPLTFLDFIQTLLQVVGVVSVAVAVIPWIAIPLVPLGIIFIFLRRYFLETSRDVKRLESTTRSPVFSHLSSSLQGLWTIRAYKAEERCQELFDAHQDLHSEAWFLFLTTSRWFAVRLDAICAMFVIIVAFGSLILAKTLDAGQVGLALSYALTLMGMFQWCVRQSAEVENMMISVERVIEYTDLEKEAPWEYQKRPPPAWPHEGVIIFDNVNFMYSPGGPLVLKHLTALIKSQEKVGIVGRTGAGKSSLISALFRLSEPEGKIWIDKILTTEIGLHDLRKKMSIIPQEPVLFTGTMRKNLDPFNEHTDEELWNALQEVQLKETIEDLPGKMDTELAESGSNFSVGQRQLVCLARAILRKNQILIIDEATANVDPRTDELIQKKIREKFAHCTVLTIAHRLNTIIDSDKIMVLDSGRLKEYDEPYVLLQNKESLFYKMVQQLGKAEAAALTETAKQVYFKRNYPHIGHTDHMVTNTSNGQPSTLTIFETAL
The format is biochemical.

With `CC(=O)Nc1ccc(O)c(SC[C@H](N)C(=O)O)c1` [APAP-CYS, acetaminophen cysteine], half-maximal inhibition (IC50) required 125 µM.
